The record followed here is patent publication US20220363686A1 (AiCuris GmbH & Co. KG, priority 2018, published 2022).

The CC50 is the concentration that lowers cell viability or growth by half. Higher therefore signals lower toxicity to the cells.

Some results are limits rather than exact numbers.

Series [1] relates to HBV. Nature of the series: Determination of HBV DNA from the supernatants of HepAD38 cells (anti-HBV activity). The class given is cell-based, hepatitis B virus. Particulars: Hepatitis B virus, HePAD38, 144 h, HBV DNA in HepAD38 supernatant, day 6, qPCR; read-out: Cell Activity. The procedure: The anti-HBV activity was analysed in the stable transfected cell line HepAD38, which has been described to secrete high levels of HBV virion particles (Ladner et al., 1997). In brief, HepAD38 cells were cultured at 37° C. at 5% CO2 and 95% humidity in 200 μl maintenance medium, which was Dulbecco's modified Eagle's medium/Nutrient Mixture F-12 (Gibco, Karlsruhe), 10% fetal bovine serum (PAN Biotech Aidenbach) supplemented with 50 μg/ml penicillin/streptomycin (Gibco, Karlsruhe), 2 mM L-glutamine (PAN Biotech, Aidenbach), 400 μg/ml G418 (AppliChem, Darmstadt) and 0.3 μg/ml tetracycline. Cells were subcultured once a week in a 1:5 ratio, but were usually not passaged more than ten times. For the assay 60,000 cells were seeded in maintenance medium without any tetracycline into each well of a 96-well plate and treated with serial half-log dilutions of test compound. To minimize edge effects the outer 36 wells of the plate were not used but were filled with assay medium. On each assay plate six wells for the virus control (untreated HepAD38 cells) and six wells for the cell control (HepAD38 cells treated with 0.3 μg/ml tetracycline) were allocated, respectively. In addition, one plate set with reference inhibitors like BAY 41-4109, entecavir, and lamivudine instead of screening compounds were prepared in each experiment. In general, experiments were performed thrice in triplicates. At day 6 HBV DNA from 100 μl filtrated cell culture supernatant (AcroPrep Advance 96 Filter Plate, […] Supor membran, PALL GmbH, Dreieich) was automatically purified on the MagNa Pure LC instrument using the MagNA Pure 96 DNA and Viral NA Small Volume Kit (Roche Diagnostics, Mannheim) according to the instructions of the manufacturer. EC50 values were calculated from relative copy numbers of HBV DNA In brief, 5 μl of the 100 μl eluate containing HBV DNA were subjected to PCR LC480 Probes Master Kit (Roche) together with 1 μM antisense primer […], 0.5 μM sense primer […], 0.3 μM hybprobes […]-FL and LC640-[…]-PH (TIBMolBiol, Berlin) to a final volume of 12.5 μl. The PCR was performed on the Light Cycler 480 real time system (Roche Diagnostics, Mannheim) using the following protocol: Pre-incubation for 1 min at 95° C., amplification: 40 cycles×(10 sec at 95° C., 50 sec at 60° C., 1 sec at 70° C.), cooling for 10 sec at 40° C. Viral load was quantitated against known standards using HBV plasmid DNA of pCH-9/3091 (Nassal et al., 1990, Cell 63: 1357-1363) and the LightCycler 480 SW 1.5 software (Roche Diagnostics, Mannheim) and ECso values were calculated using non-linear regression with GraphPad Prism 6 (GraphPad Software Inc., La Jolla, USA).
(Quantitative PCR measures a nucleic acid by following its amplification.)

Series [2] is described as follows: Cell viability assay (AlamarBlue). Particulars: human, HepAD38 cells. A general note: The colour change of resazurin is a common sign of viable cells or microbes.
Procedure: Using the AlamarBlue viability assay cytotoxicity was evaluated in HepAD38 cells in the presence of 0.3 μg/ml tetracycline, which blocks the expression of the HBV genome. Assay condition and plate layout were in analogy to the anti-HBV assay, however other controls were used. On each assay plate six wells containing untreated HepAD38 cells were used as the 100% viability control, and six wells filled with assay medium only were used as 0% viability control. In addition, a geometric concentration series of cycloheximide starting at 60 μM final assay concentration was used as positive control in each experiment. After six days incubation period Alamar Blue Presto cell viability reagent (ThermoFisher, Dreieich) was added in 1/11 dilution to each well of the assay plate. After an incubation for 30 to 45 min at 37° C. the fluorescence signal, which is proportional to the number of living cells, was read using a Tecan Spectrafluor Plus plate reader with an excitation filter 550 nm and emission filter 595 nm, respectively. Data were normalized into percentages of the untreated control (100% viability) and assay medium (0% viability) before CC50 values were calculated using non-linear regression and the GraphPad Prism 6.0 (GraphPad Software, La Jolla, USA). Mean EC50 and CC50 values were used to calculate the selectivity index (SI=CC50/EC50) for each test compound.
For series [3], the target named is HBV core protein (C-terminal truncated core protein containing 149 amino acids of the N-terminal assembly domain) (UniProt P03146). Nature of the series: Biochemical capsid assembly assay (fluorescence quenching). Further details: rows headed: Assembly Activity; other: BODIPY-FL labelled core protein, assembly started with NaCl, read after 6 min. Particulars: read-out: Assembly Activity; BODIPY-FL labelled core protein, assembly started with NaCl, read after 6 min. The procedure: The screening for assembly effector activity was done based on a fluorescence quenching assay published by Zotnick et al. (2007). The C-terminal truncated core protein containing 149 amino acids of the N-terminal assembly domain fused to a unique cysteine residue at position 150 and was expressed in E. coli using the pET expression system (Merck Chemicals, Darmstadt). Purification of core dimer protein was performed using a sequence of size exclusion chromatography steps. In brief, the cell pellet from 1 L BL21 (DE3) Rosetta2 culture expressing the coding sequence of core protein cloned NdeI/XhoI into expression plasmid pET21b was treated for 1 h on ice with a native lysis buffer (Qproteome Bacterial Protein Prep Kit; Qiagen, Hilden). After a centrifugation step the supernatant was precipitated during 2 h stirring on ice with 0.23 g/ml of solid ammonium sulfate. Following further centrifugation the resulting pellet was resolved in buffer A (100 mM Tris, pH 7.5; 100 mM NaCl; 2 mM DTT) and was subsequently loaded onto a buffer A equilibrated CaptoCore 700 column (GE HealthCare, Frankfurt). The column flow through containing the assembled HBV capsid was dialyzed against buffer N (50 mM NaHCO3 pH 9.6; 5 mM DTT) before urea was added to a final concentration of 3M to dissociate the capsid into core dimers for 1.5 h on ice. The protein solution was then loaded onto a IL Sephacryl S300 column. After elution with buffer N core dimer containing fractions were identified by SDS-PAGE and subsequently pooled and dialyzed against 50 mM HEPES pH 7.5; 5 mM DTT. To improve the assembly capacity of the purified core dimers a second round of assembly and disassembly starting with the addition of 5 M NaCl and including the size exclusion chromatography steps described above was performed. From the last chromatography step core dimer containing fractions were pooled and stored in aliquots at concentrations between 1.5 to 2.0 mg/ml at −80° C.
Immediately before labelling the core protein was reduced by adding freshly prepared DTT in a final concentration of 20 mM. After 40 min incubation on ice storage buffer and DTT was removed using a Sephadex G-25 column (GE HealthCare, Frankfurt) and 50 mM HEPES, pH 7.5. For labelling 1.6 mg/ml core protein was incubated at 4° C. and darkness overnight with BODIPY-FL maleimide (Invitrogen, Karlsruhe) in a final concentration of 1 mM. After labelling the free dye was removed by an additional desalting step using a Sephadex G-25 column. Labelled core dimers were stored in aliquots at 4° C. In the dimeric state the fluorescence signal of the labelled core protein is high and is quenched during the assembly of the core dimers to high molecular capsid structures. The screening assay was performed in black 384 well microtiter plates in a total assay volume of 10 μl using 50 mM HEPES pH 7.5 and 1.0 to 2.0 μM labelled core protein. Each screening compound was added in 8 different concentrations using a 0.5 log-unit serial dilution starting at a final concentration of 100 μM, 31.6 μM or 10 μM, In any case the DMSO concentration over the entire microtiter plate was 0.5%. The assembly reaction was started by the injection of NaCl to a final concentration of […] which induces the assembly process to approximately 25% of the maximal quenched signal. 6 min after starting the reaction the fluorescence signal was measured using a Clariostar plate reader (BMG Labtech, Ortenberg) with an excitation of 477 nm and an emission of 525 nm. As 100% and 0% assembly control HEPES buffer containing 2.5 M and 0 M NaCl was used. Experiments were performed thrice in triplicates. EC50 values were calculated by non-linear regression analysis using the Graph Pad Prism 6 software (GraphPad Software, La Jolla, USA).

Sequence of HBV core protein (C-terminal truncated core protein containing 149 amino acids of the N-terminal assembly domain) (P03146 whole entry, the tested form may be a part): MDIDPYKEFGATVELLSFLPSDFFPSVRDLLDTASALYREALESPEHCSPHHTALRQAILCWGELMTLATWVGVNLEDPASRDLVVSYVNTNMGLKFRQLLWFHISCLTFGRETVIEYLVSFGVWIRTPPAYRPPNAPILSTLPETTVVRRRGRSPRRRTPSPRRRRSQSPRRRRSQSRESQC

As to `CC1Cn2ncc(C(=O)N(C)C3CC3)c2CN1C(=O)c1cc2ccccc2[nH]1` (racemic) [Example 2, N-cyclopropyl-5-(1H-indole-2-carbonyl)-N,6-dimethyl-4H,5H,6H,7H-pyrazolo[1,5-a]pyrazine-3-carboxamide], the EC50 in series [1] is less than 1 µM. The same compound returned a CC50 at 6 days in series [2] greater than 10 µM. Further, in series [3], the IC50 was less than 5 µM.

Take `CC1Cn2ncc(C(=O)NC3(COC(F)F)CC3)c2CN1C(=O)c1cc2ccccc2[nH]1` (racemic) [Example 130, N-{1-[(difluoromethoxy)methyl]cyclopropyl}-5-(1H-indole-2-carbonyl)-6-methyl-4H,5H,6H,7H-pyrazolo[1,5-a]pyrazine-3-carboxamide]: the EC50 in series [1] is less than 1 µM. This compound also registered a CC50 at 6 days in series [2] greater than 10 µM. In addition, in series [3], the IC50 was less than 5 µM.

With `COCC1(N(C)C(=O)c2cnn3c2CN(C(=O)c2cc4ccccc4[nH]2)C(C)C3)CC1` (single isomer, unassigned) [Example 17, 5-(1H-indole-2-carbonyl)-N-[1-(methoxymethyl)cyclopropyl]-N,6-dimethyl-4H,5H,6H,7H-pyrazolo[1,5-a]pyrazine-3-carboxamide], the EC50 in series [1] is less than 1 µM. In series [2], the CC50 at 6 days was greater than 10 µM. Further, the IC50 in series [3] was 5 to 10 µM.

For `CC1Cn2ncc(C(=O)N(C)C3CC3)c2CN1C(=O)c1cc2ccccc2[nH]1` (single isomer, unassigned) [Example 18, N-cyclopropyl-5-(1H-indole-2-carbonyl)-N,6-dimethyl-4H,5H,6H,7H-pyrazolo[1,5-a]pyrazine-3-carboxamide], in series [1], the EC50 lay in the range of 1 to 10 µM. Moreover, the CC50 at 6 days in series [2] was greater than 10 µM. Further, the IC50 in series [3] was less than 100 µM.

In the case of `CC1Cn2ncc(C(=O)NC3(COC(F)F)CC3)c2CN1C(=O)c1cc2ccccc2[nH]1` (single isomer, unassigned) [Example 131, N-{1-[(difluoromethoxy)methyl]cyclopropyl}-5-(1H-indole-2-carbonyl)-6-methyl-4H,5H,6H,7H-pyrazolo[1,5-a]pyrazine-3-carboxamide], the EC50 in series [1] was less than 1 µM. Further, the CC50 at 6 days in series [2] is greater than 10 µM. Besides, the IC50 in series [3] was less than 5 µM.

Turning to `COCC1(N(C)C(=O)c2cnn3c2CN(C(=O)c2cc4ccccc4[nH]2)C(C)C3)CC1` (stereo not drawn) [Example 1, 5-(1H-indole-2-carbonyl)-N-[1-(methoxymethyl)cyclopropyl]-N,6-dimethyl-4H,5H,6H,7H-pyrazolo[1,5-a]pyrazine-3-carboxamide], the EC50 in series [1] is less than 1 µM. This compound returned a CC50 at 6 days in series [2] greater than 10 µM. Besides, in series [3], the IC50 was less than 5 µM.

For the compound `O=C(c1cc2c(F)c(F)ccc2[nH]1)N1CCn2ncc(C3CCC3)c2C1` [Example 3, 2-{3-cyclobutyl-4H,5H,6H,7H-pyrazolo[1,5-a]pyrazine-5-carbonyl}-4,5-difluoro-1H-indole], the EC50 in series [1] is less than 1 µM. For the same compound, the CC50 at 6 days in series [2] is greater than 10 µM. The IC50 in series [3] is less than 5 µM.

In the case of `Cc1cc(F)cc2[nH]c(C(=O)N3CCn4ncc(C5CCC5)c4C3)cc12` [Example 4, 2-{3-cyclobutyl-4H,5H,6H,7H-pyrazolo[1,5-a]pyrazine-5-carbonyl}-6-fluoro-4-methyl-1H-indole], the EC50 in series [1] is less than 1 µM. The compound also returned a CC50 at 6 days in series [2] greater than 10 µM. In series [3], the IC50 is less than 5 µM.

On to `O=C(c1cc2c(F)cc(F)cc2[nH]1)N1CCn2ncc(C3CCC3)c2C1` [Example 5, 2-{3-cyclobutyl-4H,5H,6H,7H-pyrazolo[1,5-a]pyrazine-5-carbonyl}-4,6-difluoro-1H-indole], for which the EC50 in series [1] is less than 1 µM. For the same compound, the CC50 at 6 days in series [2] was greater than 10 µM. In series [3], the IC50 was less than 5 µM.

Take `O=C(c1cc2ccccc2[nH]1)N1CCn2ncc(C3CCC3)c2C1` [Example 6, 2-{3-cyclobutyl-4H,5H,6H,7H-pyrazolo[1,5-a]pyrazine-5-carbonyl}-1H-indole]: in series [1], the EC50 was less than 1 µM. The compound also displayed a CC50 at 6 days in series [2] greater than 10 µM. In addition, in series [3], the IC50 was less than 5 µM.

On to `COCC1(N(C)C(=O)c2cnn3c2CN(C(=O)c2cc4c(Cl)cccc4[nH]2)CC3)CC1` [Example 7, 5-(4-chloro-1H-indole-2-carbonyl)-N-[1-(methoxymethyl)cyclopropyl]-N-methyl-4H,5H,6H,7H-pyrazolo[1,5-a]pyrazine-3-carboxamide], for which the EC50 in series [1] was less than 1 µM. In series [2], this compound returned a CC50 at 6 days greater than 10 µM. Further, the IC50 in series [3] was less than 5 µM.

As to `O=C(c1cc2ccccc2[nH]1)N1CCn2ncc(S(=O)(=O)N3CCC(F)(F)CC3)c2C1` [Example 34, 2-{3-[(4,4-difluoropiperidin-1-yl)sulfonyl]-4H,5H,6H,7H-pyrazolo[1,5-a]pyrazine-5-carbonyl}-1H-indole], the EC50 in series [1] is less than 1 µM. Besides, in series [2], the CC50 at 6 days was greater than 10 µM.

Regarding `O=C(c1cc2c(Cl)cccc2[nH]1)N1CCn2ncc(C(=O)N3CCC(F)(F)C3)c2C1` [Example 99, 4-chloro-2-[3-(3,3-difluoropyrrolidine-1-carbonyl)-4H,5H,6H,7H-pyrazolo[1,5-a]pyrazine-5-carbonyl]-1H-indole], the EC50 in series [1] is less than 1 µM. In series [2], this compound showed a cytotoxic concentration (CC50) at 6 days greater than 10 µM.

For the compound `O=C(c1cc2c(Cl)cc(F)cc2[nH]1)N1CCn2ncc(C(=O)N3CCC(F)(F)C3)c2C1` [Example 140, 4-chloro-2-[3-(3,3-difluoropyrrolidine-1-carbonyl)-4H,5H,6H,7H-pyrazolo[1,5-a]pyrazine-5-carbonyl]-6-fluoro-1H-indole], the EC50 in series [1] was less than 1 µM. This compound also registered a CC50 at 6 days in series [2] greater than 10 µM.
